Patent US7786299B2, “Methods for treating diseases or conditions using dihydropteridinone compounds” (Boehringer Ingelheim Pharma GmbH & Co. KG, priority 2003, dated 2010)
pIC50: −log10 of the molar value.

Tests used:
[1] = test system: HeLaS3 cells; assay: Measurement of cytotoxicity on cultivated human tumour cells (AlamarBlue); type: cell-based; conditions: HeLa in Table 1; unit inferred
Procedure: The activity of the compounds according to the invention was determined in the cytotoxicity test on cultivated human tumour cells and/or in a FACS analysis, for example on HeLaS3 cells.
Measurement of Cytotoxicity on Cultivated Human Tumour Cells
To measure the cytotoxicity on cultivated human tumour cells, cells of the cervical cancer tumour cell line HeLaS3 (obtained from American Type Culture Collection (ATCC)) in Ham's F12 Medium (Life Technologies) and 10% foetal calf serum (Life Technologies) were cultivated and harvested in the logarithmic growth phase. Then the HeLaS3 cells were placed in 96-well plates (Costar) at a density of 1000 cells per well and incubated overnight in an incubator (at 37° C. and 5% CO2), while on each plate 6 wells were filled only with medium (3 wells as a control of the medium, 3 wells for incubation with reduced AlamarBlue). The active substances were added to the cells in various concentrations (dissolved in DMSO; final concentration: 1%) (in each case as a triple measurement). After 72 hours' incubation, 20 μl of AlamarBlue (AccuMed International) were added to each well, and the cells were incubated for a further 7 hours. As a control, 20 μl of reduced Alamar Blue (AlamarBlue reagent which had been autoclaved for 30 min) were added to 3 wells. After 7 h incubation the colour change of the AlamarBlue reagent in the individual wells was determined in a Perkin Elmer fluorescence spectrophotometer (excitation 530 nm, emission 590 nm, slits 15, integrate time 0.1). The amount of AlamarBlue reagent reacted represents the metabolic activity of the cells. The relative cell activity was calculated as a percentage of the control (HeLa S3 cells without inhibitor) and the active substance concentration which inhibits the cell activity by 50% (IC^50) was obtained. The values were calculated from the average of three individual measurements, correcting for the control value (medium control).

[2] = test system: H460-VINC; assay: Cytotoxicity on H460-VINC cells (Table 1; method not given); type: cell-based; conditions: H460-VINC of Table 1; unit inferred

Question: Which results are given for `COc1cc(C(=O)NC2CCC(N3CCOCC3)CC2)ccc1Nc1ncc2c(n1)N(C(C)C)C(C)C(=O)N2C` (centres unmarked) [Example 26]?
Answer: pIC50 [1]: 7.23; pIC50 [2]: 6.37

Question: With `CCC1C(=O)N(C)c2cnc(Nc3ccc(C(=O)NC4CCC(N5CCOCC5)CC4)cc3OC)nc2N1C(C)C` (centres unmarked) [Example 27] as the compound, how does the pIC50 [1] read?
Answer: 7.85

Question: What about the pIC50 [2] of the same compound?
Answer: 6.79

Question: Which results are given for `CCC1C(=O)N(C)c2cnc(Nc3ccc(C(=O)NC4CCC(N5CCOCC5)CC4)cc3OC)nc2N1C(C)C` (centres unmarked) [Example 28]?
Answer: pIC50 [1]: 7.74; pIC50 [2]: 6.80

Question: What does the source list for `COc1cc(C(=O)NC2CC(C)(C)N(C)C(C)(C)C2)ccc1Nc1ncc2c(n1)N(C1CCCC1)[C@H](C)C(=O)N2C` [Example 30]?
Answer: pIC50 [1]: 7.92; pIC50 [2]: 6.24

Question: With `C[C@@H]1C(=O)N(C)c2cnc(Nc3ccc(C(=O)NC4CC(C)(C)N(C)C(C)(C)C4)cc3)nc2N1C1CCCC1` [Example 31] as the compound, how does the pIC50 [1] read?
Answer: 7.64

Question: What about the pIC50 [2] of the same compound?
Answer: ≤ 5.52

Question: How did the pIC50 [1] turn out when `COc1cc(C(=O)NC2CC(C)(C)N(C)C(C)(C)C2)ccc1Nc1ncc2c(n1)N(C(C)C)[C@H](C)C(=O)N2C` [Example 32] was run?
Answer: 7.31

Question: What about the pIC50 [2] of the same compound?
Answer: ≤ 5.52

Question: `CC(C)N1c2nc(Nc3ccc(C(=O)NC4CC(C)(C)N(C)C(C)(C)C4)cc3)ncc2N(C)C(=O)[C@H]1C` [Example 33] was tested. Which pIC50 [1] did it give?
Answer: 7.01

Question: And the pIC50 [2]?
Answer: ≤ 5.52

Question: How did the pIC50 [1] turn out when `CCN1CC[C@@H](NC(=O)c2ccc(Nc3ncc4c(n3)N(CCC(C)C)[C@H](C)C(=O)N4C)c(OC)c2)C1` [Example 37] was run?
Answer: 7.14

Question: And the pIC50 [2]?
Answer: 6.12

Question: Which results are given for `COc1cc(C(=O)N[C@H]2CC[C@H](N3CCOCC3)CC2)ccc1Nc1ncc2c(n1)N(CCC(C)C)[C@H](C)C(=O)N2C` [Example 38]?
Answer: pIC50 [1]: 7.06; pIC50 [2]: 6.56

Question: What does the source list for `COc1cc(C(=O)N[C@H]2CC[C@H](N3CCOCC3)CC2)ccc1Nc1ncc2c(n1)N(C1CCCC1)[C@H](C)C(=O)N2C` [Example 40]?
Answer: pIC50 [1]: 7.42; pIC50 [2]: 6.73

Question: What does the source list for `COc1cc(C(=O)NC2CCN(C)CC2)ccc1Nc1ncc2c(n1)N(c1ccccc1)[C@H](C)C(=O)N2C` [Example 41]?
Answer: pIC50 [1]: 7.08; pIC50 [2]: ≤ 5.52

Question: With `COc1cc(C(=O)NC2CC3CCC(C2)N3C)ccc1Nc1ncc2c(n1)N(CCC(C)C)C(C)(C)C(=O)N2C` (centres unmarked) [Example 43] as the compound, how does the pIC50 [1] read?
Answer: 7.03

Question: And the pIC50 [2]?
Answer: ≤ 5.52

Question: How did the pIC50 [1] turn out when `CCC1C(=O)N(C)c2cnc(Nc3ccc(C(=O)NC4CCN(C)CC4)cc3)nc2N1C1CCCC1` (centres unmarked) [Example 44] was run?
Answer: 8.05

Question: And the pIC50 [2]?
Answer: 6.69

Question: `CCC1C(=O)N(C)c2cnc(Nc3ccc(C(=O)NC4CC5CCC(C4)N5C)cc3OC)nc2N1C1CCCC1` (centres unmarked) [Example 45] was tested. Which pIC50 [1] did it give?
Answer: 7.66

Question: And the pIC50 [2]?
Answer: 6.10

Question: How did the pIC50 [1] turn out when `CCC1C(=O)N(C)c2cnc(Nc3ccc(C(=O)NC4CCN(C)CC4)cc3OC)nc2N1C1CCCC1` (centres unmarked) [Example 46] was run?
Answer: 7.92

Question: What about the pIC50 [2] of the same compound?
Answer: 6.68

Question: How did the pIC50 [1] turn out when `CC1C(=O)N(C)c2cnc(Nc3ccc(C(=O)NC4CCN(C)CC4)cc3)nc2N1c1ccccc1` (centres unmarked) [Example 48] was run?
Answer: 7.08

Question: And the pIC50 [2]?
Answer: ≤ 5.52

Question: `COc1cc(C(=O)NC(C)(C)CN2CCCC2)ccc1Nc1ncc2c(n1)N(C1CCCC1)C(C)C(=O)N2C` (centres unmarked) [Example 49] was tested. Which pIC50 [1] did it give?
Answer: 7.23

Question: What about the pIC50 [2] of the same compound?
Answer: 6.28

Question: Which results are given for `COc1cc(C(=O)NC(C)(C)CN2CCCC2)ccc1Nc1ncc2c(n1)N(CC(C)(C)C)C(C)C(=O)N2C` (centres unmarked) [Example 50]?
Answer: pIC50 [1]: 7.09; pIC50 [2]: 6.36

Question: `COc1cc(C(=O)NCC(C)(C)CN(C)C)ccc1Nc1ncc2c(n1)N(C1CCCC1)C(C1CC1)C(=O)N2C` (centres unmarked) [Example 51] was tested. Which pIC50 [1] did it give?
Answer: 7.10

Question: What about the pIC50 [2] of the same compound?
Answer: 6.82

Question: How did the pIC50 [1] turn out when `COc1cc(C(=O)NCC(C)(C)CN(C)C)ccc1Nc1ncc2c(n1)N(CC(C)(C)C)C(C)C(=O)N2C` (centres unmarked) [Example 52] was run?
Answer: 7.10

Question: What about the pIC50 [2] of the same compound?
Answer: 6.82

Question: Which results are given for `COc1cc(C(=O)NCC(C)(C)CN(C)C)ccc1Nc1ncc2c(n1)N(CCC(C)C)C(C)(C)C(=O)N2C` [Example 53]?
Answer: pIC50 [1]: 7.12; pIC50 [2]: 6.61

Question: Which results are given for `CCC1C(=O)N(C)c2cnc(Nc3ccc(C(=O)NC(C)(C)CN4CCCC4)cc3OC)nc2N1C(C)C` (centres unmarked) [Example 54]?
Answer: pIC50 [1]: 7.51; pIC50 [2]: 6.65

Question: With `CCC1C(=O)N(C)c2cnc(Nc3ccc(C(=O)NC(C)(C)CN4CCCC4)cc3OC)nc2N1C1CCCC1` (centres unmarked) [Example 55] as the compound, how does the pIC50 [1] read?
Answer: 7.89

Question: What about the pIC50 [2] of the same compound?
Answer: 7.07

Question: With `COc1cc(C(=O)NC(C)(C)CN2CCCC2)ccc1Nc1ncc2c(n1)N(C(C)C)C(C)C(=O)N2C` (centres unmarked) [Example 56] as the compound, how does the pIC50 [1] read?
Answer: 7.19

Question: What about the pIC50 [2] of the same compound?
Answer: 6.49

Question: With `CCC1C(=O)N(C)c2cnc(Nc3ccc(C(=O)NCC(C)(C)CN(C)C)cc3OC)nc2N1C(C)C` (centres unmarked) [Example 57] as the compound, how does the pIC50 [1] read?
Answer: 7.42

Question: And the pIC50 [2]?
Answer: 7.17

Question: Which results are given for `CCC1C(=O)N(C)c2cnc(Nc3ccc(C(=O)NCC(C)(C)CN(C)C)cc3OC)nc2N1C1CCCC1` (centres unmarked) [Example 58]?
Answer: pIC50 [1]: 8.00; pIC50 [2]: 7.64

Question: Which results are given for `COc1cc(C(=O)NCC(C)(C)CN(C)C)ccc1Nc1ncc2c(n1)N(C1CCCC1)C(C)C(=O)N2C` (centres unmarked) [Example 60]?
Answer: pIC50 [1]: 7.39; pIC50 [2]: 6.72

Question: With `COc1cc(C(=O)NC2CCN(C)CC2)ccc1Nc1ncc2c(n1)N(CC(C)C)C(C)(C)C(=O)N2C` [Example 61] as the compound, how does the pIC50 [1] read?
Answer: 7.19

Question: What about the pIC50 [2] of the same compound?
Answer: 5.98

Question: `CCN(CC)CCNC(=O)c1ccc(Nc2ncc3c(n2)N(C2CCCC2)C(C)C(=O)N3C)c(OC)c1` (centres unmarked) [Example 62] was tested. Which pIC50 [1] did it give?
Answer: 7.24

Question: What about the pIC50 [2] of the same compound?
Answer: 6.27

Question: Which results are given for `COc1cc(C(=O)NCCCN2CCOCC2)ccc1Nc1ncc2c(n1)N(C1CCCC1)C(C)C(=O)N2C` (centres unmarked) [Example 63]?
Answer: pIC50 [1]: 7.09; pIC50 [2]: 6.69

Question: Which results are given for `COc1cc(C(=O)NCCCN2CCCCC2)ccc1Nc1ncc2c(n1)N(C1CCCC1)C(C)C(=O)N2C` (centres unmarked) [Example 64]?
Answer: pIC50 [1]: 7.19; pIC50 [2]: 6.05

Question: With `COc1cc(C(=O)NCCN2CCOCC2)ccc1Nc1ncc2c(n1)N(C1CCCC1)C(C)C(=O)N2C` (centres unmarked) [Example 65] as the compound, how does the pIC50 [1] read?
Answer: 7.28

Question: And the pIC50 [2]?
Answer: 6.67

Question: How did the pIC50 [1] turn out when `COc1cc(C(=O)NCCN2CCCCC2)ccc1Nc1ncc2c(n1)N(C1CCCC1)C(C)C(=O)N2C` (centres unmarked) [Example 66] was run?
Answer: 7.19

Question: What about the pIC50 [2] of the same compound?
Answer: 6.60

Question: How did the pIC50 [1] turn out when `COc1cc(C(=O)NCCN(C)C)ccc1Nc1ncc2c(n1)N(C1CCCC1)C(C)C(=O)N2C` (centres unmarked) [Example 67] was run?
Answer: 7.28

Question: What about the pIC50 [2] of the same compound?
Answer: 6.25

Question: Which results are given for `CC1C(=O)N(C)c2cnc(Nc3ccc(C(=O)NC4CC5CCC(C4)N5C)cc3)nc2N1C1CCCC1` (centres unmarked) [Example 68]?
Answer: pIC50 [1]: 7.04; pIC50 [2]: 5.91

Question: What does the source list for `CC1C(=O)N(C)c2cnc(Nc3ccc(C(=O)NCCCN4CCOCC4)cc3)nc2N1C1CCCC1` (centres unmarked) [Example 69]?
Answer: pIC50 [1]: 7.26; pIC50 [2]: 6.20

Question: How did the pIC50 [1] turn out when `CC[C@@H]1C(=O)N(C)c2cnc(Nc3ccc(C(=O)NCCN4CCOCC4)cc3OC)nc2N1C(C)C` [Example 71] was run?
Answer: 7.46

Question: What about the pIC50 [2] of the same compound?
Answer: 6.64

Question: How did the pIC50 [1] turn out when `COc1cc(C(=O)NCCCN(C)C)ccc1Nc1ncc2c(n1)N(C1CCCC1)[C@H](C)C(=O)N2C` [Example 75] was run?
Answer: 7.34

Question: What about the pIC50 [2] of the same compound?
Answer: 6.25

Question: With `COc1cc(C(=O)NC2CCN(C)CC2)ccc1Nc1ncc2c(n1)N(C1CCCC1)[C@H](C)C(=O)N2C` [Example 80] as the compound, how does the pIC50 [1] read?
Answer: 7.42

Question: What about the pIC50 [2] of the same compound?
Answer: 6.54

Question: How did the pIC50 [1] turn out when `Cc1cc(C(=O)NC2CCN(C)CC2)ccc1Nc1ncc2c(n1)N(C1CCCC1)[C@H](C)C(=O)N2C` [Example 83] was run?
Answer: 7.16

Question: And the pIC50 [2]?
Answer: 6.58

Question: With `C[C@@H]1C(=O)N(C)c2cnc(Nc3ccc(C(=O)NC4CCN(C)CC4)cc3)nc2N1C1CCCCC1` [Example 85] as the compound, how does the pIC50 [1] read?
Answer: 7.60

Question: What about the pIC50 [2] of the same compound?
Answer: 6.12

Question: `COc1cc(C(=O)NCC(C)(C)CN(C)C)ccc1Nc1ncc2c(n1)N(C1CCCCC1)[C@H](C)C(=O)N2C` [Example 86] was tested. Which pIC50 [1] did it give?
Answer: 7.42

Question: What about the pIC50 [2] of the same compound?
Answer: 7.62

Question: What does the source list for `COc1cc(C(=O)NC(C)(C)CN2CCCC2)ccc1Nc1ncc2c(n1)N(C1CCCCC1)[C@H](C)C(=O)N2C` [Example 87]?
Answer: pIC50 [1]: 7.54; pIC50 [2]: 7.18
